Key:
Format in all cases: biochemical
LigF = target: T1, LigF (Sphingobium sp. SYK-6, UniProt P30347); experiment: LC-MS product detection with leaf extract of transgenic Arabidopsis (also E. coli extract); details: 0.5 mM MPHPV, 1 mM GSH, 1 mM NAD+, 100 mM phosphate pH 7.5, room temperature, 16 h; product GS-HPV
T1 construct: also pETSTREP in E. coli BL21(DE3)
T1 sequence (P30347 1-257): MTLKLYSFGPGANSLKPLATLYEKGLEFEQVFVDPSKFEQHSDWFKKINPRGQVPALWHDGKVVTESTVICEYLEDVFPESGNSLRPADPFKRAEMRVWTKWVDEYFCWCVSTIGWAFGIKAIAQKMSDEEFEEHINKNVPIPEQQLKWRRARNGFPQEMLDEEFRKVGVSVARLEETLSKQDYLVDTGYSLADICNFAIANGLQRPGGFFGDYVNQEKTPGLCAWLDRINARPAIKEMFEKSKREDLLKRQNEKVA

LigD = target: T2, LigD (Sphingobium sp. SYK-6, UniProt Q01198); experiment: LC-MS product detection with leaf extract of transgenic Arabidopsis; details: 0.5 mM GGE, 1 mM NAD+, 1 mM GSH, 100 mM phosphate pH 7.5, room temperature, 16 h; product MPHPV
T2 sequence (Q01198 1-305): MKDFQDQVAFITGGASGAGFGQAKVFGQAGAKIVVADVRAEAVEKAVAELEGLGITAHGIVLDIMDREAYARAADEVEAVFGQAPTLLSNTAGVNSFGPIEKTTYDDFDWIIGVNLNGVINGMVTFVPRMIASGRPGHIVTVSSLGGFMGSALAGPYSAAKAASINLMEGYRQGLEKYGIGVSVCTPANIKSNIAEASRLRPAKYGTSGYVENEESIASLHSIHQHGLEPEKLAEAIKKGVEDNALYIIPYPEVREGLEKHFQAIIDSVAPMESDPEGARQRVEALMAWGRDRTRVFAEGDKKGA

LigG = target: T3, LigG (Sphingomonas paucimobilis, UniProt Q9WXJ9); experiment: as above; details: GS-HPV from LigF reaction mixture, GSH, 100 mM phosphate pH 7.5
T3 construct: codon-optimised, barley alpha-amylase signal peptide added, expressed in Arabidopsis (crude leaf extract)
T3 sequence (Q9WXJ9 1-265): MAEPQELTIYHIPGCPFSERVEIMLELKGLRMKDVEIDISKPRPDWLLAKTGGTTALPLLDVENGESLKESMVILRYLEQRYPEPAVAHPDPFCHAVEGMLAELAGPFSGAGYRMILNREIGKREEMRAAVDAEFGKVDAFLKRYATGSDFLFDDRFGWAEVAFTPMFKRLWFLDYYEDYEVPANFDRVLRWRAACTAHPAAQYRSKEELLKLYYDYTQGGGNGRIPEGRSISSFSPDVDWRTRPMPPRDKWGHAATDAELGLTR

Compound: COc1cc(C(=O)C(CO)Oc2ccccc2OC)ccc1O (stereo not drawn) [S4, MPHPV]
- LC-MS product detection with leaf extract of transgenic Arabidopsis (also E. col) (LigF): produced enzymatically by incubation of MPHPV with protein extracts of Escherichia coli expressing LigF

Compound: COc1cc(C(O)C(CO)Oc2ccccc2OC)ccc1O (stereo not drawn) [GGE]
- LC-MS product detection with leaf extract of transgenic Arabidopsis (LigD): GGE, MPHPV and GS‐HPV were used as a substrate to monitor the catalytic function

Compound: COc1cc(C(=O)C(CO)SC[C@H](NC(=O)CC[C@H](N)C(=O)O)C(=O)NCC(=O)O)ccc1O (stereo partly drawn) [GS-HPV]
- LC-MS product detection with leaf extract of transgenic Arabidopsis (LigG): The reaction mixture obtained contained mainly GS‐HPV and was used to test for LigG activity
